{"source": "patent US9409896B2", "about": "“Sustained release pharmaceutical compositions comprising an antibacterial agent” (Melinta Therapeutics, Inc., priority 2010, dated 2016)", "key": {"pKa of model compound": {"test": "pKa of model compound", "assay_type": "physicochemical"}, "log P of model compound": {"test": "log P of model compound", "assay_type": "physicochemical"}, "Solubility": {"test": "Solubility", "assay_type": "physicochemical"}, "Food effect": {"test": "Food effect", "settings": "in vivo"}, "[1]": {"test": "Monkey oral bioavailability", "settings": "in vivo, at 20 mg/kg dose"}, "Caco-2 permeability": {"test": "Caco-2 permeability", "assay_type": "in vitro ADME", "settings": "human"}, "[2]": {"test": "Polarized light microscopy of drug suspended in buffers with or without sodium chloride", "assay_type": "physicochemical", "settings": "in the presence of chloride ion", "experimental": "The common ion effect was studied using dissolution and microscopic methods. The microscopic method was conducted with drug suspended in water, pH 1.2, pH 4 and pH 6.5 buffers with and without sodium chloride. The dissolution of the drug and its granulations were studied using three different 2-step dissolution methods which entails the following: Method #1: simple 2-step buffers at pH 4 from 0-30 minutes and at pH 6.5 from 30-90 minutes. Method #2: simple 2-step buffers with the presence of chloride ion in both steps. Method #3: simple buffer at pH 4 with presence of chloride ion from 0-30 minutes; and buffer with bile salts and surfactants at pH 6.5 from 30-90 minutes. The two steps represent fed stomach and intestinal conditions, respectively.\nFormulation Preparation Bulk drug powders were wet granulated with and without excipients. Granules were dried and sized through a #18 mesh screen. Polarized Microscopic Observation Microscopic test was conducted with drug suspended in water, pH 1.2, 4, and 6.5 buffers with and without sodium chloride. Dissolution Test: Four dissolution media were tested. Results of these tests are shown in line-graph formats in FIGS. 3-7. Bulk drug powders were wet granulated with and without excipients. […]\nAn in-vivo dog study was conducted with beagle dogs (wt=12 kg, n=3). […] Serial of plasma samples were collected, extracted, and analyzed by LC/MS/MS. […]"}}, "note": "Read-outs that look alike come from different tables or passages of the source."}
{"compound": "CC(=O)NC[C@H]1CN(c2ccc(-c3ccc(CNCc4cnn[nH]4)cc3)c(F)c2)C(=O)O1", "note": "[model compound, N-[3-(2-fluoro-4′-{[(3H-[1,2,3]triazol-4-ylmethyl)-amino]-methyl}-biphenyl-4-yl)-2-oxo-oxazolidin-5-(S)-ylmethyl]-acetamide]", "values": [{"measurement": "pKa", "setting": "pKa of model compound", "result": 6.8}, {"measurement": "logP", "setting": "log P of model compound", "result": 0.7}, {"measurement": "solubility", "setting": "Solubility; at pH 6.8, read-out: Intrinsic solubility", "result": 10, "unit": "µg/mL"}, {"measurement": "solubility", "setting": "Solubility; water, pH 4, water, read-out: Solubility of salt in water", "result": 2600, "unit": "µg/mL"}, {"measurement": "solubility", "setting": "Solubility; water, pH 5.4, water, read-out: Solubility of salt in water", "result": 200, "unit": "µg/mL"}, {"measurement": "solubility", "setting": "Solubility; water, pH 6.5, water, read-out: Solubility of salt in water", "result": 60, "unit": "µg/mL"}, {"measurement": "Positive food effect", "setting": "Food effect", "result": 4, "unit": "×"}, {"measurement": "bioavailability", "setting": "[1]", "result": 15, "unit": "%"}, {"measurement": "Papp", "setting": "Caco-2 permeability", "result": 0.5, "unit": "×10⁻⁶ cm/s"}, {"measurement": "microscopic observation of aggregates", "setting": "[2]", "result": "formed aggregates in the presence of chloride ion"}]}
